Columns and labels:
[1] = test system: HBME, HAEC and HDVMEC cells; test: CCL2 synthesis by endothelial cells stimulated with PTHrP; type: cell-based, human; settings: PTHrP 10 nM
Description: To determine the role of CCL2 in the development of prostate cancer-bone metastasis the level of CCL2 was analyzed by ELISA. […]

[2] = test system: MC3T3-E1 subclone 4 (MC-4) OB cells; test: CCL2 ELISA of osteoblast cells stimulated with PTHrP; type: cell-based, mouse; settings: PTHrP 10 nM; day 7 and day 14 after induced differentiation
Description: VCaP cells were obtained from a lumbar vertebral metastatic lesion through the Rapid Autopsy program at the University of Michigan (Korenchuk et al., 2001; 2: 163-168; Loberg et al., Urol. One. 2006; 24:161-168). Cells were cultured in Dulbecco's Modified Eagle Medium supplemented with 10% Fetal Bovine Serum and 1% antibiotic/antimicotic and incubated at 37° C. PC3 prostate cancer cells were obtained from the American Type Culture Collection (Manassas, Va.). Cells were cultured in RPMI-1640 with L-Glutamine (Cambrex Bioproducts) and supplemented with 10% Fetal Bovine Serum and 1% antibiotic/antimicotic. Cells were incubated at 37° C. and subcultured according to ATCC specifications. MC3T3-E1 subclone 4 cells (MC-4) with high osteoblast differentiation potential were maintained and passaged every 4-5 days as previously described. Briefly, cells were grown in AMEM (Gibco) containing 100 units/ml penicillin and streptomycin and 10% FBS. MC3T3 cells were plated at 40,000-50,000 cells/cm2, and differentiation was induced with the addition of ascorbic acid (50 μg/ml) for 7 days. The culture medium was changed at days 1, 3, 5, and 7. […]
A mouse CCL2 specific ELISA kit was purchased from BD Biosciences (San Diego, Calif.) to measure the protein level of CCL2 in cell culture media. […] Values were calculated from standard curves set up for each assay. […]

[3] = test system: primary mouse calvaria osteoblasts; test: CCL2 ELISA of primary osteoblasts stimulated with PTHrP; type: cell-based; settings: maximal response at 2 hours post-stimulation
Description: Primary mouse calvarial cells were isolated as previously described. Briefly, calvaria of newborn mice at day 4 were dissected, isolated, and subjected to sequential digestions in collagenase A (2 mg/ml) and 0.25% trypsin for 20, 40, and 90 minutes. Cells from the third digest were washed, counted, and plated in αMEM with 10% FBS containing 100 U/ml of penicillin and streptomycin. Primary cultures were used without passage. For differentiation, both MC-4 and primary cells were induced to differentiate and form mineralized matrix with the addition of ascorbic acid (50 μg/ml) and β-glycerophosphate (10 mM) with media replacement (every 2 days). In proliferation phase, MC-4 cells were serum staved for 24 h before addition of PTHrP or vehicle for indicated time. Otherwise, cells were treated with PTHrP or vehicle for indicated time without serum starvation.
A mouse CCL2 specific ELISA kit was purchased from BD Biosciences (San Diego, Calif.) to measure the protein level of CCL2 in cell culture media. Assays were performed as recommended by the manufacturer to determine levels of secreted CCL2 in MC-4 or primary cell culture media. Values were calculated from standard curves set up for each assay. The data are based on a triplicate experiments performed independently. Data are shown as mean +SEM in the figures.

PC-3 cells [4] = test: Fluorescence-based migration assay toward hrMCP-1; type: cell-based, human; settings: for PC-3 cell migration, mean fluoresence±SD: 24 hours
Description: (§1) Flouresence-based Migration Assay—Cell migration was assessed using the Innocyte Cell Migration Assay (Calbiochem, Inc.) following the manufacturer's instructions. Briefly, increasing concentrations of MCP-1 (1-100 ng/mL) in the presence and absence of CCR2 inhibitors or neutralizing antibodies were added to the lower chamber of a 96 well plate. Cells were harvested by 0.5 μM EDTA release and resuspended at 2.5×10^5 cells/mL in serum free media. 2.5×10^4 cells were added to the upper chamber and allowed to migrate through the membrane with 8 μm pores for 24 hours at 37° C. and 5% CO2 atmosphere. Cells that migrated through the membrane were detached and labeled with Calcein AM and fluorescence was measured using fluorescent plate reader with excitation wavelength of 485 nm and emission wavelength of 520 nm. The experiments were repeated twice and each conditioned was performed in quadruplicate in each experiment.

VCaP cells [5] = test: Fluorescence-based migration assay toward hrMCP-1; type: cell-based, human; settings: for VCaP cell migration, mean fluoresence±SD: 24 hours
Description: as §1

PC-3 cells [6] = test: WST-1 proliferation assay with MCP-1 with or without LY294002; type: cell-based, human; settings: increasing concentrations, 24-96 hours
Description: (§2) Proliferation Assay-Cells were seeded at a density of 4×10^3 cells/well in a six well plate in regular media. Twenty four hours after seeding the media was changed with serum free media with increasing concentrations of MCP-1(1-100 ng/mL) in the presence of absence of LY294002 (1 μM). Cell growth was determined at 24, 48, 72, and 96 hours after seeding using the WST-1 assay (Pierce Biotech) following the manufacturer's instructions.

VCaP cells [7] = test: as above; type: cell-based, human; settings: increasing concentrations, 24-96 hours
Description: as §2

LNCaP cells = test: WST-1 proliferation assay with MCP-1; type: cell-based, human; settings: compared to vehicle treated controls
Description: as §2

PC-3 cells [8] = test: Western blot of MCP-1 induced signaling; type: cell-based, human; settings: MCP-1 100 ng/mL
Description: (§3) Western Blot-Cells were lysed in RIPA buffer (50 mM Tris-HCl, pH 7.4, 1% NP-40, 150 mM NaCl, 1 mM EDTA, 1 mM PMSF, 1 mM Na3VO4, 1 mM NaF, 1 uM okadaic acid and 1 ug/mL aprotinin, leupeptin and pepstatin). Proteins were separated under reducing conditions by SDS-PAGE and transferred onto nitrocellulose membrane. The membranes were blocked with 5% milk in TBST (0.1% Tween in TBS) for 1 hour at room temperature. They were incubated overnight at 4° C. with primary antibodies. Membranes were washed 3 times prior to incubation with HRP-conjugated secondary antibodies (Cell Signaling, Beverly, Mass.) for 1 hour at room temperature. Protein expression was visualized by ECL chemiluminescent (Promega, Madison, Wis.) and quantitated using Image J software (NCl, Bethesda, Md.).

VCaP cells [9] = test: Western blot of MCP-1 induced signaling; type: cell-based, human; settings: MCP-1 100 ng/mL, time dependent, maximal at 30 min; dose-dependent 0.1-100 ng/mL
Description: as §3

PC-3 cells [10] = test: Immunofluorescence of actin rearrangement and lamellipodial formation; type: cell-based, human
Description: Immunofluorescence-PC-3 cells were plated on glass coverslips and serum starved for 2 hours prior to stimulation. Cells were stimulated with MCP-1 (100 ng/mL) for 30 min in the presence or absence of identified inhibitors. Stimulation with SDF-1 (200 ng/mL) for 30 min was used as a positive control. Cells were fixed in 3.7% paraformaldehyde, methanol-free for 10 min at room temperature then permeablized with 0.5% Triton X-100 for 5 min at room temperature. Cells were rinsed twice with PBS and incubated for 30 minutes at room temperature with 3% bovine serum albumin (BSA) in PBS+0.05% Tween 20 to prepare cells for staining. Cells were incubated with Phalloidin AlexaFluor S68 (Molecular Probes, Inc.) at a 1:40 dilution in BSA solution to label actin. Cells were washed and mounted on coverslips with Pro-Long Antifade containing DAPI (Molecular Probes, Inc.) following manufacturer's instructions. Immunofluoresence was visualized using a multi-photon laser scanning microscope (MPLSM), consisting of a Mai Tai Broadband Ti:Sapphire laser, tuneable between 710-990 nm and a modified Olympus Fluoview 300 confocal microscope with long working distance water immersion IR objectives. Images were captured with a 60× objective (zoom ×2), 800 nm excitation wavelength, 605 nm and 520 nm centered emmission filters.

PC-3Luc cells [11] = test: WST-1 proliferation assay with hrCCL2 and anti-CCL2 antibodies; type: cell-based, human; settings: 72 hours, antibodies 30 μg/mL
Description: Cells were seeded at a density of 1×10^5 cells/ml for PC-3Luc cells in a 96 well plate in RPMI+10% FBS (FCS is mentioned in previous section). Twenty-four hours after seeding, media was changed to either serum-free RPMI or RPMI+10% FBS. Cell growth was determined 72 hours later using the WST-1 assay (Pierce Biotech, Inc.) following the manufacturer's instructions.

[12] = in vivo; cited from earlier work
PC-3Luc cells [13] = test: Bioluminescent in vivo model of metastasis (Example 4, antibodies and/or docetaxel); parameters: species or system male SCID mice
Description: Bioluminescent imaging of PC-3Luc was preformed as previously described through The University of Michigan Small Animal Imaging Resource facility (MSAIR) (Loberg et al., 2006. Neoplasia. 8:578-586). Briefly, PC-3Luc cells were introduced into male SCID mice (5-6 wks of age) by intracardiac injections. Mice were serially imaged weekly for up to 12 weeks using a CCD IVIS system using a 50 mm lens (Xenogen Corp, Alameda, Calif.) and the results were analyzed using LIVING IMAGE software (Xenogen Corp.). Mice were separated into groups and treatment began at week 2 post-intracardiac injection and mice received 2 mg/Kg antibody twice weekly by intraperitoneal (i.p.) injection (for up to eight weeks) and/or 40 mg/Kg Taxotere i.p. injection once per week for three weeks. Mice were injected with luciferin (40 mg/mL) intraperitoneally and ventral images were acquired 15 min postinjection under 1.75% isofluorane/air anesthesia. Total tumor burden of each animal was calculated using regions of interest (ROIs) that encompassed the entire animal. Animals were sacrificed after week 6 image and individual organs were harvested and immediately placed in formalin.

PTHrP: Human Parathyroid hormone related protein (PTHrP)-(1-34) from Bachem
synthesis of CCL2 [1]: increased their respective synthesis of CCL2
CCL2 expression [2]: rapidly increased within 2 hours
CCL2 expression [3]: increased CCL2 expression

hrMCP-1: Human recombinant MCP-1 (CC chemokine ligand 2) from Chemicon International
PC-3 cell migration, mean fluoresence±SD (PC-3 cells [4]; hrMCP-1 1 ng/mL): 83.53±2.981
PC-3 cell migration, mean fluoresence±SD (PC-3 cells [4]; hrMCP-1 10 ng/mL): 142.2±2.678
PC-3 cell migration, mean fluoresence±SD (PC-3 cells [4]; hrMCP-1 100 ng/mL): 248.1±0.761
VCaP cell migration, mean fluoresence±SD (VCaP cells [5]; hrMCP-1 1 ng/mL): 130.6±2.145
VCaP cell migration, mean fluoresence±SD (VCaP cells [5]; hrMCP-1 10 ng/mL): 176.1±9.051
VCaP cell migration, mean fluoresence±SD (VCaP cells [5]; hrMCP-1 100 ng/mL): 296.5±2.681
proliferation in response to MCP-1 (PC-3 cells [6]): enhanced proliferation
proliferation in response to MCP-1 (VCaP cells [7]): enhanced proliferation
proliferation in response to MCP-1 (LNCaP cells): no effect
GSK3α/β phosphorylation (PC-3 cells [8]): no effect
p70 S6 kinase phosphorylation (PC-3 cells [8]): induced p70 S6 kinase phosphorylation
Akt phosphorylation by immunoblot (PC-3 cells [8]; time dependent, maximal at 30 min, dose-dependent 0.1-100 ng/mL): induced Akt phosphorylation
Akt phosphorylation by immunoblot (VCaP cells [9]): induced Akt phosphorylation
actin cytoskeleton: finger-like projections and lamellipodia (PC-3 cells [10]; MCP-1 100 ng/mL, 30 min, compared to control cells): increased formation
cell viability (WST-1) as a measure of proliferation, mean ±SD (PC-3Luc cells [11]; CCL2 10 ng/mL): 136.2±7.81
cell viability (WST-1) as a measure of proliferation, mean ±SD (PC-3Luc cells [11]; CCL2 100 ng/mL): 168.15±5.44

O=C1Nc2ccccc2C2(CCN(CCc3ccc(C(F)(F)F)cc3)CC2)O1 [RS-102895]
effect on MCP-1 induced dose dependent migration of PC-3 cells (PC-3 cells [4]; MCP-1 1-100 ng/mL): attenuated
effect on MCP-1 induced dose dependent migration of VCaP cells (VCaP cells [5]; MCP-1 1-100 ng/mL): attenuated
effect on MCP-1 induced actin rearrangement and lamellipodial formation (PC-3 cells [10]; co-incubation with MCP-1 100 ng/mL, RS-102895 1 μM): did not prevent actin rearrangement and lamellipodial formation

VEGF TRAPR1R2: VEGF TRAP Fc fusion protein (Holash et al.)
AUC [12]: 36.28 µg·days/mL
Cmax [12]: 16 µg/mL

CC(=O)O[C@@]12CO[C@@H]1C[C@H](O)[C@@]1(C)C(=O)[C@H](O)C3=C(C)[C@@H](OC(=O)[C@H](O)[C@@H](NC(=O)OC(C)(C)C)c4ccccc4)C[C@@](O)([C@@H](OC(=O)c4ccccc4)[C@H]21)C3(C)C [docetaxel, (2R,3S)-N-carboxy-3-phenylisoserine, N-tert-butyl ester, 13-ester with 5b-20-epoxy-12a,4,7b,10b,13a-hexahydroxytax-11-en-9-one 4-acetate 2-benzoate, trihydrate]
animals of group counted at Wk 6 (tumor regression, Table 2) (PC-3Luc cells [13]; Wk 6 = First week after cessation of Taxotere): 2 of 9
animals of group counted at Wk 9 (tumor regression, Table 2) (PC-3Luc cells [13]; Wk 9 = First week after cessation of Antibodies): 1 of 9
total tumor burden at Day 35 (PC-3Luc cells [13]; antibodies 2 mg/Kg i.p. twice weekly, docetaxel 40 mg/Kg i.p.): 3.19 % of PBS-treated animals
tumor burden during and after therapy (docetaxel, combination, antibody maintenance) (PC-3Luc cells [13]; docetaxel 40 mg/Kg i.p. qw for 3 weeks, antibodies 2 mg/Kg i.p. twice weekly until week 8): decrease in tumor burden while receiving therapy

Reference: patent US20080118437A1, “Diagnosis and treatment O prostate cancer” (Regents of the University of Michigan, priority 2006, published 2008)
